The values that follow come from patent publication US11932626B2, “2-pyrimidone analogs as potent antiviral agents against Alphaviruses” (priority 2020, dated 2024).

As a reminder, the EC90 is the concentration needed for an effect of 90%. By EC50 is commonly meant the midpoint of the concentration-response curve.

Series [1] relates to VEEV. As to the kind of experiment: microbe, parasite or virus in culture. It counts as cell-based. The settings on record: Venezuelan equine encephalitis virus, NHDF.
A short description of series [2]: in vitro. The settings on record: human.
Series [3] has as its system VEEV (TC-83). Nature of the series: microbe, parasite or virus in culture. It counts as cell-based. Particulars: Venezuelan equine encephalitis virus, read-out: VEEV EC50.
For series [4], the system named is CHIKV linked NanoLuc luciferase reporter. As to the kind of experiment: microbe, parasite or virus in culture. The series is classed as cell-based. The settings on record: Chikungunya virus, read-out: CHIKV EC50.
Series [5] concerns CHIKV. Nature of the series: CHIKV virus titer reduction (VTR) assay in NHDF cells. The settings on record: Chikungunya virus. The series is classed as cell-based.
Series [6] relates to Chikungunya virus (CHIKV) strain SL15649. Nature of the series: CHIKV-infected mice, 10 days oral treatment: footpad swelling and viremia.
Series [7] shares this test system. As to the kind of experiment: CHIKV-infected mice, 5 days oral treatment: tissue viral loads.

Structures are written as SMILES.

As to `O=C(COc1cc[nH]c(=O)n1)NC12CC3CC(CC(C3)C1)C2` [Compound No. 7, N-(Adamantan-1-Yl)-2-((2-Oxo-1,2-Dihydropyrimidin-4-Yl)Oxy)Acetamide], the EC90 in series [1] (read-out: VEEV EC90) is 1.1 µM; in series [5] (effective concentration of 90% inhibition of virus in a VTR assay, NHDF cells), 0.7 µM. Further, the log reduction at 10 µM in series [1] (read-out: VEEV VTR) worked out at 1.79; in series [5] (CHIKV titer reduction at 10 μM, normal human dermal fibroblasts (NHDF) cells), 3.68. Besides, the CC50 in series [2] is > 40 µM. In addition, the EC50 was 38.8 µM in series [3] and 3.2 µM in series [4]. Moreover, the Adverse toxicity entry in series [6] (mice treated three times per day for 10 days per os) and in series [7] (mice treated three times per day for 5 days per os) was “No adverse toxicity was observed” in each case. Further, the “Footpad swelling in the ipsilateral foot” value in series [6] (mice, 40 mg/kg 3× daily p.o., days 3-8, compared to vehicle treated mice) was “reduced swelling in the ipsilateral foot at days 3, 4, 5, 6, 7, and 8”. In series [6] (mice, 40 mg/kg 3× daily p.o., serum at 3 days post infection, p=0.0003), the “Viral loads in serum” value was “did not have detectable viral loads in serum samples”. Moreover, the Tissue distribution entry in series [6] (mice, per os three times per day) was “distributed to a number of tissue types including joints and muscles”. In series [7] (mice, 40 mg/kg 3× daily p.o., 5 dpi, p<0.0001), the “Infectious viral loads in Ipsilateral ankle” value is given as “reduced infectious viral loads”. The “Infectious viral loads in Contralateral ankle” value in series [7] (mice, 40 mg/kg 3× daily p.o., 5 dpi, p=0.0009) is given as “reduced infectious viral loads”.
